Assay results taken from publication PMC11724075, “Small-molecule-induced ERBB4 activation to treat heart failure” (Nature Communications, 2025).
Several values for one entry are separate records, joined by “and”; a condition that tells them apart may be missing. Equal values may be shown once.

Tests used:
HCFs = assay: Bulk RNA sequencing and GSEA of human cardiac fibroblasts; assay type: cell-based; conditions: EF-1 32 µM, 16 h, log2-fold change >0, P adj <0.05
Experimental: iAMs were seeded at a density of 6 ×10^6 cells/mL in differentiation medium in 75-cm^2 cell culture flasks (Greiner Bio-One, 658175) and incubated for 9 days (d0 = day of seeding). HCF were seeded at a density of 3 × 10^6 cells/mL in fibroblast medium in 75-cm^2 cell culture flasks. […] Next, cells were lysed using 350 µL buffer RLT (Qiagen) supplemented with β-mercaptoethanol (100:1; Merck, 444203). Total RNA was isolated using the RNeasy Micro Kit (Qiagen, 74104) according to the manufacturer’s protocol, with an extra step of DNase digestion. The concentration and quality of RNA were determined using a Qubit fluorometer (Thermo Fisher Scientific) and 2100 Agilent BioAnalyzer (Agilent Technologies), respectively. Samples with an RNA integrity number >7 were used for library preparation. Sequencing libraries were prepared by Genewiz/Azenta (Leipzig) on cDNA prepared from polyadenylated mRNA. Libraries were sequenced using a NovaSeq 6000 (Illumina) with a read length of 2 ×150 bp.
Gene expression was quantified at the transcript level using Salmon (v1.10.0)[60], with the validatMappings and -gcBias parameters switched on, to the Rnor_6.0 or GRCh38 transcriptome. […] Functional enrichment of DEGs was determined using a hypergeometric test against the Gene Ontology database by using the ClueGO (v2.5.7)[64] module of Cytoscape (v3.9.1)[65] with Benjamini–Hochberg adjusted (FDR) P < 0.05. […]

Erbb4-null mice = assay: Acute high-dose DOX-induced cardiotoxicity, cTnI ELISA, female Erbb4-null mice; assay type: in vivo, mouse; set-up: In vivo DOX experiment in male+female Erbb4-null mice with EF-1 (cTnI): unit not given here
Experimental: DOX (20 mg/kg; Pfizer, 4222) was administered intraperitoneally once on day 4 to induce cardiotoxicity. On day 7, mice were euthanized, serum samples were collected via the retrobulbar sinus and hearts were excised.
(§1) Floxed Erbb4 mice (Erbb4^f/f; C57BL/6N; 129-Erbb4tm1Fej/Mmucd, MMRRC, #010439-UCD) were crossed with CAGGCre-ER^TM mice (Jackson Laboratory, 004682) containing the Tg(CAG-cre/Esr1*)5Amc transgene that expresses Cre recombinase under the control of a chicken beta actin promoter/enhancer coupled to the human cytomegalovirus immediate-early gene enhancer, resulting in expression of tamoxifen-inducible Cre-ERT in most cell types. To induce Cre recombinase-mediated deletion of Erbb4, eleven-week-old female and male iCAGGCre-ER^TM/Erbb4^f/f mice were intraperitoneally injected with tamoxifen (Merck, T5648; 10 mg/kg; in corn oil) daily for 5 consecutive days.
Serum samples were centrifuged for 15 min (1000 × g) at 4 °C and analyzed using a mouse cardiac Troponin I Type 3 ELISA kit (Novus Biologicals, NBP3–00456), according to the manufacturer’s instructions. Briefly, a 96-well microplate was coated with an anti-mouse TNNI3/cTnI primary antibody (Capture Antibody Solution). Standard solution or samples (100 μL) were added to the plate and incubated for 90 min at 37 °C. […]

iCAGCre-Erbb4f/f mice = assay: AngII-induced fibrosis in iCAGCre-Erbb4f/f mice injected with corn oil without tamoxifen; assay type: in vivo, mouse
Excerpt: as §1
Hearts were fixed in 4% PFA, paraffin-embedded, and cut into 5-µm sections. Images were acquired with an Olympus BX43 microscope (Olympus Stream Motion Software) or a CELENA® S Digital Imaging System and analyzed with ImageJ 2.14.0 software. Collagen distribution was visualized by Masson’s trichrome staining. Cardiac total fibrosis was expressed as the ratio of positively stained fibrotic area (blue) to the total area and perivascular fibrosis as the ratio of fibrotic area to vascular lumen area. Scar size was determined by measuring the scar length over the […]. Hypertrophy and vascularisation were visualized via an isolectin-B4/WGA/DAPI staining. Quantification was performed by a person blinded to the treatment protocol.
Supplementary Figure 6. Effect of AngII in male WT mice with compound NA-1 and the validation of genotype and phenotype of iCAGCre-Erbb4 f/f mice. […]
Uncropped gel is presented in Supplementary Figure 9. (c) Survival curve depicting the effects of 1000 ng/kg AngII treatment on mouse survival (ctrl = black line; 1000 ng/kg AngII = red line; n=6 male and female mice in Ctrl group and n=15 mice who received 1000 ng/kg AngII treatment). (d) Representative images of Masson’s trichrome staining of AngII-induced myocardial fibrosis in iCAGCre- […]
and n=10 male and female ice in AngII/Veh group). Scale bar = 500 µm for total fibrosis, scale bar = 50 µm for perivascular fibrosis. […]

## O=C(NC1CC1)C(Sc1nc2ccccc2c(=O)n1C1CCCC1)c1ccccc1 (centres unmarked) [EF-1]
HCFs
  number of significantly downregulated genes compared to Veh: 507
  number of significantly upregulated genes compared to Veh: 336
Erbb4-null mice; female Erbb4-null mice
  effect on DOX-induced increase in cTnI plasma levels (in words): did not prevent the increase in cTnI plasma levels
Erbb4-null mice; male+female Erbb4-null mice, DOX/EF-1 group, individual animals, Fig. 6d
  In vivo DOX experiment in male+female Erbb4-null mice with EF-1 (cTnI): 3.884 and 54.574 and 87.9141 and 7.084 and 54.129 and 15.8453 and 39.5225 and 62.9332
iCAGCre-Erbb4f/f mice; AngII/EF-1, individual animals
  Perivascular fibrosis male+female in vivo corn oil-treated iCAGCre-Erbb4f/f mice with EF-1: 0.8706 and 1.275 and 0.6537 and 2.675 and 0.6132 and 2.541 and 1.901 and 0.8014
  Total fibrosis male+female in vivo corn oil-treated iCAGCre-Erbb4f/f mice with EF-1: 3.59 and 3.39 and 3.18 and 4.74 and 4.82 and 3.84 and 3.53 and 4.29 and 4.51
iCAGCre-Erbb4f/f mice; iCAGCre-Erbb4f/f mice injected with corn oil without tamoxifen
  inhibitory effects on AngII-induced interstitial and perivascular fibrosis (in words): preserved
other
  half-life with mouse microsomes: 15 min
